Assay: Caco-2 permeability assay
Type: in vitro ADME
Settings: human

Papp A→B at 10 µM | SMILES
1.59 ×10⁻⁶ cm/s | C[C@H]1O[C@@H](O[C@H]2[C@@H](O)C[C@H](O[C@H]3[C@@H](O)C[C@H](O[C@H]4CC[C@@]5(C)[C@H](CC[C@@H]6[C@@H]5C[C@@H](O)[C@]5(C)[C@@H](C7=CC(=O)OC7)CC[C@]65O)C4)O[C@@H]3C)O[C@@H]2C)C[C@H](O)[C@@H]1O [digoxin]
19.8 ×10⁻⁶ cm/s | COCCc1ccc(OCC(O)CNC(C)C)cc1 (centres unmarked) [metoprolol]

— article PMC11348715 (Chemical Science, 2024)
